Data as given in patent EP1113726B1, “USE OF NEOHESPERIDIN DIHYDROCHALCONE FOR THE MANUFACTURE OF A MEDICAMENT FOR PREVENTING OR TREATING ELEVATED BLOOD LIPID LEVEL-RELATED DISEASES” (Korea Research Institute of Bioscience and Biotechnology, priority 1998, dated 2000).

Experiments:
ACAT = ACAT assay on liver microsomes of the diet-fed rats; format: biochemical; conditions: ex vivo: liver microsomes of rats fed 1 % cholesterol plus 0.05 % neohesperidin dihydrochalcone for six weeks, versus Control group
Procedure: To determine the effect of feeding neohesperidin dihydrochalcone to rats on the activity of ACAT, microsomes were separated from liver tissues to be used as an enzyme source.
1 g each of the livers taken from each group of rats of Example 2 was homogenized in 5 ml of homogenization medium(0.1 M KH2PO4, pH 7.4, 0.1 mM EDTA and 10 mM β-mercaptoethanol). The homogenate was centrifuged at 3,000xg for 15 min. at 4°C and the supernatant thus obtained was centrifuged at 15,000xg for 15 min. at 4°C to obtain a supernatant. The supernatant was put into an ultracentrifuge tube(Beckman) and centrifuged at 100,000xg for 1 hour at 4°C to obtain microsomal pellets, which were then suspended in 3 ml of the homogenization medium and centrifuged at 100,000xg for 1 hour at 4°C. The pellets thus obtained were suspended in 1 ml of the homogenization medium. The protein concentration of the resulting suspension was determined by Lowry's method and then adjusted to 4 to 8 mg/ml. […]
200 µl of the resulting supernatant was put in a scintillation bottle and 4 ml of scintillation fluid(Lumac) was added thereto. The mixture was assayed for radioactivity with 1450 Microbeta liquid scintillation counter(Wallacoy, Finland). ACAT activity was calculated as picomoles of cholesteryl oleate synthesized per min. per mg protein(pmoles/min/mg protein).

[1] = test system: New Zealand White rabbits; experiment: Chemical analysis of blood of cholesterol-fed rabbits; format: in vivo
Procedure: 30 three-month-old New Zealand White rabbits(Yeonam Horticulture and Animal Husbandry College, Korea), each weighing about 2.5 to 2.6 kg, were raised under a condition of temperature 20±2°C, relative humidity 55±5 %, and photoperiod 12L/12D. The rabbits were divided into 3 groups and 3 groups of rabbits were fed with 3 different diets, i.e., RC4 diet(Oriental Yeast Co., Japan) containing 1 % cholesterol(Control group); 1 % cholesterol plus 1 mg/kg Lovastatin®(Merck, U.S.A.)(Lovastatin group); and 1 % cholesterol plus 0.05 % neohesperidin dihydrochalcone(Neohesperidin dihydrochalcone group), respectively. RC4 diet comprises 7.6 % moisture, 22.8 % crude protein, 2.8 % crude fat, 8.8 % crude ash, 14.4 % crude cellulose and 43.6 % soluble nitrogen-free substances. Neohesperidin dihydrochalcone was purchased from Sigma Chemical Co.(St. Louis, MO).
The rabbits were fed for 6 weeks while being allowed free access to the diets and water.
After six weeks, the rabbits were anesthetized with an intramuscular injection of ketamine (50 mg/kg) in the femoral region and sacrificed.

[2] = rabbit serum, 1 % cholesterol diet for 6 weeks plus 1 mg/kg Lovastatin or 0.05 % neohesperidin dihydrochalcone
[3] = rabbits, 1 % cholesterol plus 0.05 % neohesperidin dihydrochalcone, 6 weeks

Compound: COc1ccc(CCC(=O)c2c(O)cc(O[C@@H]3O[C@H](CO)[C@@H](O)[C@H](O)[C@H]3O[C@@H]3O[C@@H](C)[C@H](O)[C@@H](O)[C@H]3O)cc2O)cc1O [Neohesperidin dihydrochalcone]
- %Inhibition on ACAT activity (ACAT): 20%
- GOT [1, 2]: 53 (±23) IU/1
- GPT [1, 2]: 42 (±20) IU/l
- Total-C [1, 2]: 1293 (±89) mg/dl
- γ-GTP [1, 2]: 7.8 (±5) IU/l
- reducing serum GOT and GPT levels, compared with Lovastatin® ([1]; rabbits, 1 % cholesterol diet, 6 weeks): more effective
- serum GOT level lowered, as compared to the Control group [1, 3]: 31%
- serum GPT level lowered, as compared to the Control group [1, 3]: 35%
